“And” between values parts separate entries of the source, which are not always exact repeats. Identical values can stand only once. Counter-ions that a name gives are not always drawn.
System: monoclonal antibody from hybridoma Hept-2
Assay type: binding, mice

First: ClC1=C(Cl)C2(Cl)C3C4CC(C5OC45)C3C1(Cl)C2(Cl)Cl [endrin, (1R, 4S, 5R, 8S) 1,2,3,4,10,10-hexachloro-6,7-epoxy-1,4,4a,5,6,7,8,8a-octahydro-exo-5,8,dimethano-naphthalene]
Second: ClC1=C(Cl)C2(Cl)C3C4OC4C(Cl)C3C1(Cl)C2(Cl)Cl (stereo not shown) [heptachlor epoxide]
The “% Crossreactivity” value of the first is higher: 150% for the first, 100% for the second.

`O=C(O)COc1cc(Cl)c(Cl)cc1Cl` [2,4,5-triCl-phenoxyacetic acid] and `O=C(O)COc1ccc(Cl)cc1Cl` [2,4-D] are the same in “% Crossreactivity” value: 0% for the first, 0% for the second.

First: O=S1OCC2C(CO1)C1(Cl)C(Cl)=C(Cl)C2(Cl)C1(Cl)Cl (stereo not drawn) [a-Endosulfan, alpha-endosulfan]
Second: O=S1(=O)OCC2C(CO1)C1(Cl)C(Cl)=C(Cl)C2(Cl)C1(Cl)Cl (stereo not shown) [Endosulfansulfate, endosulfan sulfate]
The “% Crossreactivity” value of the first is lower: 43% for the first, 182% for the second.

Compared with `ClC1=C(Cl)C(Cl)(Cl)C(Cl)=C1Cl` [hexa-Cl-cyclopentadiene], `Oc1c(Cl)c(Cl)c(Cl)c(Cl)c1Cl` [penta-Cl-phenol] is lower in “% Crossreactivity” value: 1.6% for the first, 0% for the second.

Going from `O=[N+]([O-])c1ccc(O)c([N+](=O)[O-])c1` [2,4-dinitro-phenol] to `O=[N+]([O-])c1ccccc1O` [2-nitro-phenol], the “% Crossreactivity” value falls from 0.2% to 0%.

`O=[N+]([O-])c1cc(Cl)cc(Cl)c1O` [2,4-diCl-6-nitrophenol] and `Oc1c(Cl)cc(Cl)cc1Cl` [2,4,6-triCl-phenol] are the same in “% Crossreactivity” value: 0% for the first, 0% for the second.

Going from `O=S1OCC2C(CO1)C1(Cl)C(Cl)=C(Cl)C2(Cl)C1(Cl)Cl` (stereo not drawn) [β-Endosulfan, beta-endosulfan] to `ClC1=C(Cl)C2(Cl)C3C(Cl)C(Cl)CC3C1(Cl)C2(Cl)Cl` (stereo not shown) [chlordane, 2,3,4,5,6,7,8,8-Octachloro-2,3,3a,4,7,7a-hexahydro-4,7-methanoindene], the “% Crossreactivity” value falls from 250% to 75%.

`Oc1ccccc1` [phenol] and `Clc1ccccc1` [Chlorobenzene] are the same in “% Crossreactivity” value: 0% for the first, 0% for the second.

`O=[N+]([O-])c1cc(Cl)ccc1Cl` [2,5-diCl-nitroBz] and `Clc1ccc(Cl)c(Cl)c1` [1,2,4-triCl-Bz] are the same in “% Crossreactivity” value: 0% for the first, 0% for the second.

Compared with `ClC1C(Cl)C(Cl)C(Cl)C(Cl)C1Cl` (stereo not shown) [Lindand (BHC), 1,2,3,4,5,6-Hexachlorocyclohexane], `ClC1=C(Cl)C2(Cl)C3C(Cl)C=CC3C1(Cl)C2(Cl)Cl` (stereo not drawn) [heptachlor, 1,-exo-,4,5,6,7,8,8,-Heptachloro-3a,4,7,7a-tetrahydro-4,7-methanoindene] is higher in “% Crossreactivity” value: 7.3% for the first, 100% for the second.

`Clc1ccccc1Cl` [1,2-diCl-Bz] and `Oc1ccccc1Cl` [2-Cl-phenol] are the same in “% Crossreactivity” value: 0% for the first, 0% for the second.

Compared with `ClC1=C(Cl)C2(Cl)C3C4C=CC(C4)C3C1(Cl)C2(Cl)Cl` (stereo not drawn) [aldrin, 1,2,3,4,10,10-Hexachloro-1,4,4a,5,8,8a hexahydro-1,4-exo, endo-5,8,-dimethanonaphthalene (HHDN)], `O=S1OCC2C(CO1)C1(Cl)C(Cl)=C(Cl)C2(Cl)C1(Cl)Cl` (stereo not shown) [Endosulfan (mix), 6,7,8,9,10,10-Hexachloro-1,5,5a,6,9,9a-hexahydro-6,9,-methano-2,4,3-benzo[e]-dioxathiepin-3-oxide] is higher in “% Crossreactivity” value: 100% for the first, 173% for the second.

Compared with `O=C1C2(Cl)C3(Cl)C4(Cl)C(Cl)(Cl)C5(Cl)C3(Cl)C1(Cl)C5(Cl)C24Cl` (stereo not shown) [Kepone, Decachloro-octahydro-1,3,4,-metheno-2H-cyclobuta(cd) pentalen-2-one], `ClC(Cl)(Cl)C(Cl)(Cl)Cl` [hexa-Cl-ethane] is lower in “% Crossreactivity” value: 5% for the first, 0% for the second.

`Clc1cccc(Cl)c1` [1,3-diCl-Bz] and `Clc1ccc(Cl)cc1` [1,4-diCl-Bz] are the same in “% Crossreactivity” value: 0% for the first, 0% for the second.

`Oc1cc(Cl)c(Cl)cc1O` [4,5-diCl-catecol] and `Oc1cc(Cl)c(Cl)cc1Cl` [2,4,5-triCl-phenol] are the same in “% Crossreactivity” value: 0% for the first, 0% for the second.

`Cc1cc(O)ccc1Cl` [4-Cl-3-Me phenol] and `Cc1ccc(O)c(C)c1` [2,4-DiMe-phenol] are the same in “% Crossreactivity” value: 0% for the first, 0% for the second.

`Clc1ccc2ccccc2c1` [2-Cl-naphthalene] and `Oc1ccc(Cl)cc1Cl` [2,4-diCl-phenol] are the same in “% Crossreactivity” value: 0% for the first, 0% for the second.

`Clc1ccc(C(c2ccc(Cl)cc2)C(Cl)(Cl)Cl)cc1` [DDT] and `O=[N+]([O-])c1ccc(O)cc1` [4-nitro-phenol] are the same in “% Crossreactivity” value: 0% for the first, 0% for the second.

`ClC(Cl)=C(Cl)C(Cl)=C(Cl)Cl` [hexa-Cl-butadiene] and `OCC(Cl)(Cl)Cl` [2,2,2-tri-Cl-ethanol] are the same in “% Crossreactivity” value: 0.4% for the first, 0.4% for the second.

`ClC1=C(Cl)C2(Cl)C3C4CC(C5OC45)C3C1(Cl)C2(Cl)Cl` [endrin, (1R, 4S, 5R, 8S) 1,2,3,4,10,10-hexachloro-6,7-epoxy-1,4,4a,5,6,7,8,8a-octahydro-exo-5,8,dimethano-naphthalene] was tested, and the I50 was 1-10 ng/well.
In the case of `ClC1=C(Cl)C2(Cl)C3C4C=CC(C4)C3C1(Cl)C2(Cl)Cl` (stereo not drawn) [aldrin, 1,2,3,4,10,10-Hexachloro-1,4,4a,5,8,8a hexahydro-1,4-exo, endo-5,8,-dimethanonaphthalene (HHDN)], the I50 is reported as 1-10 ng/well.
`ClC1=C(Cl)C2(Cl)C3C(Cl)C(Cl)CC3C1(Cl)C2(Cl)Cl` (stereo not shown) [chlordane, 2,3,4,5,6,7,8,8-Octachloro-2,3,3a,4,7,7a-hexahydro-4,7-methanoindene] was tested, and the I50 was 1-10 ng/well.
With `ClC1=C(Cl)C2(Cl)C3C4OC4C(Cl)C3C1(Cl)C2(Cl)Cl` (stereo not shown) [heptachlor epoxide] the I50 was 1-10 ng/well.
With `ClC1=C(Cl)C2(Cl)C3C(Cl)C=CC3C1(Cl)C2(Cl)Cl` (stereo not drawn) [heptachlor, 1,-exo-,4,5,6,7,8,8,-Heptachloro-3a,4,7,7a-tetrahydro-4,7-methanoindene] the I50 was 2-4 ng/well and 1-10 ng/well.
